The values that follow are results of earlier work, collected in PMC2593936 (Bioorganic & medicinal chemistry, 2008).

This data set has as its target T1, human A3AR (Homo sapiens, UniProt P0DMS8).
T1 sequence (P0DMS8 1-318): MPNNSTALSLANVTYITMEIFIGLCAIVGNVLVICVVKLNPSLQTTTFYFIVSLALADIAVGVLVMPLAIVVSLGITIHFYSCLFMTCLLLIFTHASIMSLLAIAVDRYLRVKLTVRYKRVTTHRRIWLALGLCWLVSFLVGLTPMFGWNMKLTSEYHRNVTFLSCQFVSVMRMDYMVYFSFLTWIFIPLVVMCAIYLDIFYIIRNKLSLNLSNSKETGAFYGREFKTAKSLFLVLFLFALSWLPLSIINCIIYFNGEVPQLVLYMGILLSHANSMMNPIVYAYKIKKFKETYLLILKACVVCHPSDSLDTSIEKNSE
To be noted: relative to full agonist NECA at 10 μM.

Marks after values point to notes of the source that are not given here.

Consider `CNC(=O)[C@@]12C[C@@H]1[C@@H](n1cnc3c(NCc4cccc(I)c4)nc(Cl)nc31)[C@H](O)[C@@H]2O` [Compound 7], for which the “%Efficacy A3” value is 100 ^c %.
